Measurements reported in the supplement of paper PMC10307832.

Assays:
Assay in all cases: relative viability (nuclei count vs DMSO), 5 days (fraction); higher = more cells survive
NCI-H1975 = system: NCI-H1975
Procedure, shortened: (§1)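 For relative viability, nuclei counts in treated wells were divided by those in vehicle wells. Lung cancer cell lines had been pin-tool dosed in 1536-well plates the day after seeding and cultured for 5 days, then fixed and stained in one step (final 0.05% Triton X-100, 1% formaldehyde, 1 ug/ml Hoechst) and imaged at 4×. Doses were one drug alone or a fixed anchor-drug dose plus five library-drug doses (not always all listed) in √10 steps, and values are duplicate-plate medians.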

SW 900 = system: SW 900
Procedure, shortened: as §1

HCC-366 = system: HCC-366
Procedure, shortened: as §1

LXF-289 = system: LXF-289
Procedure, shortened: as §1

NCI-H1793 = system: NCI-H1793
Procedure, shortened: as §1

NCI-H1755 = system: NCI-H1755
Procedure, shortened: as §1

LC-2-ad = system: LC-2-ad
Procedure, shortened: as §1

LU99A = system: LU99A
Procedure, shortened: as §1

EPLC-272H = system: EPLC-272H
Procedure, shortened: as §1

NCI-H2170 = system: NCI-H2170
Procedure, shortened: as §1

LCLC-97TM1 = system: LCLC-97TM1
Procedure, shortened: as §1

UMC-11 = system: UMC-11
Procedure, shortened: as §1

COR-L 105 = system: COR-L 105
Procedure, shortened: as §1

HOP-62 = system: HOP-62
Procedure, shortened: as §1

HCC-78 = system: HCC-78
Procedure, shortened: as §1

NCI-H1915 = system: NCI-H1915
Procedure, shortened: as §1

NCI-H460 = system: NCI-H460
Procedure, shortened: as §1

NCI-H1944 = system: NCI-H1944
Procedure, shortened: as §1

NCI-H1792 = system: NCI-H1792
Procedure, shortened: as §1

NCI-H358 = system: NCI-H358
Procedure, shortened: as §1

A-427 = system: A-427
Procedure, shortened: as §1

SK-LU-1 = system: SK-LU-1
Procedure, shortened: as §1

NCI-H2342 = system: NCI-H2342
Procedure, shortened: as §1

NCI-H2085 = system: NCI-H2085
Procedure, shortened: as §1

In the case of `COc1cc(N2CCC(C(N)=O)CC2)ccc1Nc1nc(N)c(Cl)c(Nc2ccccc2S(=O)(=O)C(C)C)n1` [HG-5-88-01] + Cc1nc(Nc2ncc(C(=O)Nc3c(C)cccc3Cl)s2)cc(N2CCN(CCO)CC2)n1 [Dasatinib] (partner 0.075 µM), the relative viability (NCI-H1975; first compound 0.04 µM) is reported as 0.358, the relative viability (NCI-H1975; first compound 0.1265 µM) is reported as 0.352 and the relative viability (NCI-H1975; first compound 0.4 µM) is reported as 0.284. The relative viability (NCI-H1975; first compound 1.265 µM) was 0.217, the relative viability (NCI-H1975; first compound 4 µM) was 0.145 and the relative viability (SW 900; first compound 0.04 µM) was 0.848. The relative viability (SW 900; first compound 0.1265 µM) was 0.548, the relative viability (SW 900; first compound 0.4 µM) was 0.391 and the relative viability (SW 900; first compound 1.265 µM) was 0.578. For the same compound, the relative viability (SW 900; first compound 4 µM) was 0.17, the relative viability (HCC-366; first compound 0.04 µM) was 0.65 and the relative viability (HCC-366; first compound 0.1265 µM) was 0.677. It also gave a relative viability (HCC-366; first compound 0.4 µM) of 0.514, a relative viability (HCC-366; first compound 1.265 µM) of 0.691 and a relative viability (HCC-366; first compound 4 µM) of 0.3. The relative viability (LXF-289; first compound 0.04 µM) was 0.252, the relative viability (LXF-289; first compound 0.1265 µM) was 0.198 and the relative viability (LXF-289; first compound 0.4 µM) was 0.116. It also gave a relative viability (LXF-289; first compound 1.265 µM) of 0.132, a relative viability (LXF-289; first compound 4 µM) of 0.11 and a relative viability (NCI-H1793; first compound 0.1265 µM) of 0.617. For the same compound, the relative viability (NCI-H1793; first compound 0.4 µM) was 0.355, the relative viability (NCI-H1793; first compound 4 µM) was 0.336 and the relative viability (NCI-H1755; first compound 0.04 µM) was 0.459. It also gave a relative viability (NCI-H1755; first compound 0.1265 µM) of 0.514, a relative viability (NCI-H1755; first compound 0.4 µM) of 0.369 and a relative viability (NCI-H1755; first compound 1.265 µM) of 0.29. For the same compound, the relative viability (NCI-H1755; first compound 4 µM) was 0.15, the relative viability (LC-2-ad; first compound 0.04 µM) was 0.633 and the relative viability (LC-2-ad; first compound 0.1265 µM) was 0.469. For the same compound, the relative viability (LC-2-ad; first compound 0.4 µM) was 0.261, the relative viability (LC-2-ad; first compound 1.265 µM) was 0.287 and the relative viability (LC-2-ad; first compound 4 µM) was 0.205. For the same compound, the relative viability (LU99A; first compound 0.04 µM) was 0.592, the relative viability (LU99A; first compound 0.1265 µM) was 0.496 and the relative viability (LU99A; first compound 0.4 µM) was 0.434. For the same compound, the relative viability (LU99A; first compound 1.265 µM) was 0.21, the relative viability (LU99A; first compound 4 µM) was 0.237 and the relative viability (EPLC-272H; first compound 0.04 µM) was 0.49. For the same compound, the relative viability (EPLC-272H; first compound 0.1265 µM) was 0.31, the relative viability (EPLC-272H; first compound 0.4 µM) was 0.226 and the relative viability (EPLC-272H; first compound 1.265 µM) was 0.121. For the same compound, the relative viability (EPLC-272H; first compound 4 µM) was 0.0712, the relative viability (NCI-H2170; first compound 0.04 µM) was 0.502 and the relative viability (NCI-H2170; first compound 0.1265 µM) was 0.441. The relative viability (NCI-H2170; first compound 0.4 µM) was 0.498, the relative viability (NCI-H2170; first compound 1.265 µM) was 0.165 and the relative viability (NCI-H2170; first compound 4 µM) was 0.269. For the same compound, the relative viability (LCLC-97TM1; first compound 0.04 µM) was 0.753, the relative viability (LCLC-97TM1; first compound 0.1265 µM) was 0.956 and the relative viability (LCLC-97TM1; first compound 0.4 µM) was 0.481. It also gave a relative viability (LCLC-97TM1; first compound 1.265 µM) of 0.714, a relative viability (LCLC-97TM1; first compound 4 µM) of 0.477 and a relative viability (UMC-11; first compound 0.04 µM) of 0.434. For the same compound, the relative viability (UMC-11; first compound 0.1265 µM) was 0.449, the relative viability (UMC-11; first compound 1.265 µM) was 0.469 and the relative viability (UMC-11; first compound 4 µM) was 0.409. It also gave a relative viability (COR-L 105; first compound 0.04 µM) of 0.305, a relative viability (COR-L 105; first compound 0.1265 µM) of 0.314 and a relative viability (COR-L 105; first compound 0.4 µM) of 0.254. The relative viability (COR-L 105; first compound 1.265 µM) was 0.203, the relative viability (COR-L 105; first compound 4 µM) was 0.19 and the relative viability (HOP-62; first compound 0.04 µM) was 0.682. It also gave a relative viability (HOP-62; first compound 0.1265 µM) of 0.606, a relative viability (HOP-62; first compound 0.4 µM) of 0.487 and a relative viability (HOP-62; first compound 1.265 µM) of 0.444. It also gave a relative viability (HOP-62; first compound 4 µM) of 0.253, a relative viability (HCC-78; first compound 0.04 µM) of 0.356 and a relative viability (HCC-78; first compound 0.1265 µM) of 0.286. For the same compound, the relative viability (HCC-78; first compound 0.4 µM) was 0.22, the relative viability (HCC-78; first compound 1.265 µM) was 0.197 and the relative viability (HCC-78; first compound 4 µM) was 0.174. The relative viability (NCI-H1915; first compound 0.04 µM) was 0.347, the relative viability (NCI-H1915; first compound 0.1265 µM) was 0.316 and the relative viability (NCI-H1915; first compound 0.4 µM) was 0.295. The relative viability (NCI-H1915; first compound 1.265 µM) was 0.314, the relative viability (NCI-H1915; first compound 4 µM) was 0.239 and the relative viability (NCI-H460; first compound 0.04 µM) was 0.481. It also gave a relative viability (NCI-H460; first compound 0.1265 µM) of 0.56, a relative viability (NCI-H460; first compound 0.4 µM) of 0.316 and a relative viability (NCI-H460; first compound 1.265 µM) of 0.255. The relative viability (NCI-H460; first compound 4 µM) was 0.0831, the relative viability (NCI-H1944; first compound 0.04 µM) was 0.205 and the relative viability (NCI-H1944; first compound 0.1265 µM) was 0.201. The relative viability (NCI-H1944; first compound 0.4 µM) was 0.233, the relative viability (NCI-H1944; first compound 1.265 µM) was 0.191 and the relative viability (NCI-H1944; first compound 4 µM) was 0.188. The relative viability (NCI-H1792; first compound 0.04 µM) was 0.959, the relative viability (NCI-H1792; first compound 0.1265 µM) was 0.693 and the relative viability (NCI-H1792; first compound 0.4 µM) was 0.78. It also gave a relative viability (NCI-H1792; first compound 4 µM) of 0.525, a relative viability (NCI-H358; first compound 0.04 µM) of 0.142 and a relative viability (NCI-H358; first compound 0.1265 µM) of 0.153. It also gave a relative viability (NCI-H358; first compound 0.4 µM) of 0.164, a relative viability (NCI-H358; first compound 1.265 µM) of 0.11 and a relative viability (NCI-H358; first compound 4 µM) of 0.138. The relative viability (A-427; first compound 0.04 µM) was 0.77, the relative viability (A-427; first compound 0.1265 µM) was 0.686 and the relative viability (A-427; first compound 0.4 µM) was 0.676. For the same compound, the relative viability (A-427; first compound 1.265 µM) was 0.746, the relative viability (A-427; first compound 4 µM) was 0.431 and the relative viability (SK-LU-1; first compound 0.04 µM) was 0.178. It also gave a relative viability (SK-LU-1; first compound 0.1265 µM) of 0.182, a relative viability (SK-LU-1; first compound 0.4 µM) of 0.106 and a relative viability (SK-LU-1; first compound 1.265 µM) of 0.123. It also gave a relative viability (SK-LU-1; first compound 4 µM) of 0.0874, a relative viability (NCI-H2342; first compound 0.04 µM) of 0.281 and a relative viability (NCI-H2342; first compound 0.1265 µM) of 0.336. It also gave a relative viability (NCI-H2342; first compound 0.4 µM) of 0.308, a relative viability (NCI-H2342; first compound 1.265 µM) of 0.307 and a relative viability (NCI-H2342; first compound 4 µM) of 0.268. The relative viability (NCI-H2085; first compound 0.04 µM) was 0.296, the relative viability (NCI-H2085; first compound 0.1265 µM) was 0.242 and the relative viability (NCI-H2085; first compound 0.4 µM) was 0.24. It also gave a relative viability (NCI-H2085; first compound 1.265 µM) of 0.186 and a relative viability (NCI-H2085; first compound 4 µM) of 0.163.
